Laboratory results published in a melting point compilation (Tetko et al.; mined from patent text by program, amines drawn as free bases though some values may be those of a salt).

Point of comparison: Cc1ccc(C)c(Cn2[nH]c(N)cc2=O)c1, melting point 124 °C. Against it:
- Cc1noc(C)c1C(=O)Nc1ccc(-n2nc(C3CC3)cc2C2CC2)c(F)c1 — higher, 166 to 168 °C
- CC(C)(C#N)c1ccc(C#N)cc1 — lower, 122 to 123 °C
- CC(=O)n1nc(-c2ccccc2)cc1Sc1ccccc1 — lower, 83 to 84.5 °C
- Cc1ccc(CNc2nc(OCC(F)(F)F)nc(Oc3cccc(C(F)(F)F)c3)n2)o1 — lower, 116 to 118 °C
- O=C=NC(=O)CS(=O)(=O)c1ccc(Cl)cc1 — lower, 58 to 60 °C
- O=C(NCc1cc(C(F)(F)F)cc(C(F)(F)F)c1)c1oc(=O)c2ncccc2c1-c1ccccc1 — higher, 129 to 130 °C
- CCCC1(CCC)CC1(CN)C(=O)O (stereo unspecified) — higher, 255 to 257 °C
- CCOC(=O)c1cccc2c(=O)cc(-c3ccc(OCc4ncc5ccccc5n4)cc3)oc12 — higher, 265 to 266 °C
- O=C(c1c(F)cccc1F)N1CS(=O)CN(c2ccc(Cl)cc2)C1=O (stereo unspecified) — higher, 220 °C
- COC(=O)c1cc2ccc(Sc3ccc(C)cc3)nc2s1 — higher, 127 to 130 °C
- CN1CCC(OC2c3ccccc3CCn3cc(-c4ccc(N)cc4)nc32)CC1 (stereo unspecified) — higher, 197 °C
- CNc1nc(-c2ccncc2)n[nH]1 — higher, 228 to 230 °C
- CCOc1ccc(-c2nc(OC)ccc2N2CCC(=O)N(c3ccc(OC)cc3)CC2)cc1C — higher, 136 to 138 °C
- COc1ccc2sc(=NN3C(=O)CSC3=S)sc2c1 — higher, 254 to 255 °C
- CC(C)(C)c1cc(=O)n(-c2c(Cl)cc(C(F)(F)F)cc2Cl)[nH]1 — higher, 175 °C
- O=c1[nH]c2ncc(-c3ccc(-c4nn[nH]n4)cc3)nc2n1CC1CCCCC1 — higher, > 400 °C
- COC(=O)c1ccc(SC(Cn2ccnc2)c2ccc(Cl)cc2Cl)cc1 (stereo unspecified) — not separable, 121 to 124 °C
- COc1ccc(C(Cc2ccc(C(N)=O)cc2)c2ccccc2)cc1OC1CCCC1 (stereo unspecified) — lower, 73 to 75 °C
- CO[C@@H]1CN(Cc2ccccc2)CC[C@H]1NC(=O)c1cccc(C(F)(F)F)c1 (relative stereo) — higher, 135 °C
- Cc1ccc(Cn2c(=O)c3c(Cl)cc(Cl)cc3n(Cc3ccccc3)c2=O)cc1C — higher, 126 to 132 °C
- CCCCCCCCCCOc1csc(-c2ccc(N)cc2)c1OCCCCCCCCCC — lower, 64.5 to 65.5 °C
- COc1cc(Nc2c(C#N)cnc3cc4cc(OCCCN5CCOCC5)c(OC)cc4cc23)c(Cl)cc1Cl — higher, 205 to 208 °C
- Nc1nc2c(ncn2OCC(O)CCP(=O)(O)O)c(=O)[nH]1 (stereo unspecified) — higher, > 315 °C
- Fc1cc(Cn2ccnc2)cc2c1Cc1c(-c3ccsc3)n[nH]c1-2 — higher, 274 to 276 °C
- CCS(=O)(=O)Nc1ccc(OC(=O)NC)cc1C — higher, 146 to 148 °C
- CC(=O)OC1CSC(Oc2cccc(Cl)n2)C(OC(C)=O)C1OC(C)=O (stereo unspecified) — higher, 127 °C
- Cn1ncc(C(=O)Nc2cc(Cl)ccc2Cl)c1N — higher, 190 to 191 °C
- O=C1CCC(CCc2ccc(-c3ccccc3)cc2)N1O (stereo unspecified) — higher, 192 to 194 °C
- O=c1[nH]sc2c1CCC2 — higher, 177 to 179 °C
- COc1cc(-c2ccccc2C(F)(F)F)c(Cl)cc1C(=O)N1Cc2ccc(C(=O)N(C)Cc3cccnc3)n2Cc2ccccc21 — not separable, 124 to 126 °C
- COC(=O)c1ccc(N=CC=Cc2ccccc2)cn1 — higher, 128 to 131 °C
- Cc1cc(C)c(-c2nc(C)cc3c2ncn3Cc2ccccc2)c(C)c1 — higher, 177 to 180 °C
- Fc1ccc(NC(=S)c2ccccn2)c(F)c1 — not separable, 124 to 129 °C
- COCc1nc(N)nc(N)c1-c1c(Cl)cccc1Cl — higher, 204 to 207 °C
- COCCN1C(=O)C(C)(C)C(=O)Nc2cc(CN(CCn3cc(C)c4occc4c3=O)Cc3cccnc3C)ccc21 — higher, 205 to 206 °C
- Nc1nc(NCCSSCCNc2n[nH]c(N)n2)n[nH]1 — higher, 231 to 233 °C
- COC(=O)Nc1nc2ccc(OS(=O)(=O)c3cccc(OC(F)(F)C(F)F)c3)cc2[nH]1 — higher, 186 °C
- CNc1nc(NC)c2ncn(COC(COC(=O)C(C)C)COC(=O)C(C)C)c2n1 — lower, 122 to 123 °C
- CCC(C)c1ccc(-n2c(-c3cc(C)c(OCCO)c(C)c3)nc3ccc(OC)cc3c2=O)cc1 (stereo unspecified) — higher, 152 to 154 °C
- CC(C)(NCCc1ccccc1)C(O)c1ccccc1 (stereo unspecified) — lower, 103 to 104 °C
- Cc1nc(N)c2nc(C)n(CCCNC(=O)C(C)C)c2c1C — higher, 178 to 179 °C
- COc1cc(C=O)ccc1OCCCCCCO — lower, 55 to 56 °C
- COc1ccc(Oc2ccc3c(c2)C=C(C(=O)O)C(C(F)(F)F)O3)cc1Cl (stereo unspecified) — higher, 205 to 207 °C
- COc1cc(CC(C)(C)NC(=O)c2ccc(=O)n(-c3ccc4cc(C)ccc4n3)c2)cc2c1OC(C)(C)C2 — higher, 192 to 193 °C
- COC(=O)C1C(=O)N(Cc2ccc(Br)cc2F)C(=O)c2ccccc21 (stereo unspecified) — higher, 149 to 150 °C
- Fc1ccc2[nH]c3c(c2c1)CN(CCCCc1ccncc1)CC3 — higher, 210 to 212 °C
- CNCc1noc(-c2cc(C(C)(C)C)c(O)c(C(C)(C)C)c2)n1 — lower, 120 to 122 °C
- CCOC(=O)CN1CCN(c2cc3c(cc2F)c(=O)c(C(=O)O)cn3C2CC2)CC1 — higher, 192 to 194 °C
- O=CNCC1CCc2ccccc2N(C=O)C1 (stereo unspecified) — higher, 128 °C
- CC(C)(C)[C@H]1CC[C@@H](Nc2nnc(Cc3ccncc3)c3ccccc23)CC1 — lower, 64 to 65 °C
- CCCn1nc(-c2c(-c3ccccc3)nn3ccc(OC)cc23)ccc1=O — higher, 174 °C
- Nc1cc(-n2cc(C(=O)O)c(=O)c3cc(F)c(F)c(Cl)c32)ncc1F — higher, 280 °C
- COC(=O)c1ccc(S(C)(=O)=O)c(C)c1Cl — lower, 107 to 108 °C
- Cc1c(S(C)(=O)=O)c2cccc(Cl)c2n1CC1=NCCN1 — higher, 206 to 208 °C
- CSc1nc(=O)[nH]c(C)c1Br — higher, 244 °C
- CCCCc1ncc(/C=C(\Cc2cccs2)C(=O)O)n1Cc1ccc(C(=O)O)c(C(=O)O)c1 — higher, 204 to 205 °C
- Cc1cccc(C)c1OCC(C)NCC(O)c1cc(C(N)=O)cs1 (stereo unspecified) — higher, 125 to 137 °C
- O=c1[nH]c2ccc(Cl)cc2c2nc(-c3ccc(O)cc3)nn12 — higher, > 350 °C
- COc1ccc(C(=O)O)c(C)c1OC — higher, 179 to 180 °C
- C=CS(=O)(=O)C(C)(C)S(=O)(=O)C=C — lower, 121 to 122 °C
- COc1ccc(S(=O)(=O)F)nn1 — lower, 87 to 88 °C
- Cc1cccc(NC(=O)NCC(=O)N(CC(=O)N(C)c2ccccc2)c2ccccc2C)c1 — higher, 193 °C
- CC(=O)OC1CSC(Oc2ccnc(-c3cccnc3)c2)C(OC(C)=O)C1OC(C)=O (stereo unspecified) — higher, 185 °C
- CC(=O)Oc1ccccc1C(=O)SC(C)C(=O)NCC(=O)O (stereo unspecified) — lower, 100 to 102 °C
- CCc1nc2sc(S(N)(=O)=O)cc2c(=O)n1-c1ccccc1Cl — higher, 253 °C
- Cc1cc(-c2ccc(N(c3ccccc3)c3ccccc3)c(C)c2)ccc1N(c1ccccc1)c1ccccc1 — higher, 175 to 178 °C
- Nc1nc(Cc2ccccc2)ncc1C=S — higher, 136 to 139 °C
- COc1ccc(Nc2ncnc(NCc3ccco3)n2)cc1 — higher, 184 to 186 °C
- Cc1ccccc1NC(=O)C(Cl)Cl — higher, 192 to 195 °C
- CC(C)(C)OC(=O)NN(Cc1ccccc1)C[C@H](O)[C@H](Cc1ccccc1)NC(=O)OCc1ccccc1 — higher, 142 to 143 °C
- CNC(=O)C(SC)c1cc(Cl)cc(C(=O)c2ccccc2)c1N (stereo unspecified) — higher, 170 to 171 °C
- O=C1NC(Cc2ccc(OCc3ccccc3)cn2)C(=O)NC1Cc1cccnc1 (stereo unspecified) — higher, 193 to 196 °C
- O=C1CC[C@H](CC(c2ccc(S(=O)(=O)C3CC3)cc2)c2nc(F)c(C(=O)C3CCC3)[nH]2)C1 (stereo partly specified) — lower, 85 to 88 °C
- CCCN1C(=O)c2cnc(-c3ccccc3)nc2N(C(=O)CCl)c2ccccc21 — higher, 139 to 140 °C
- Nc1cccc2c1CCCCC2 — lower, 107 to 111 °C
- C[C@H](CCC=O)[C@H]1CC[C@@]2(C)C3=C(CC[C@]12C)[C@@]1(C)CCC(=O)C(C)(C)C1CC3 (stereo partly specified) — lower, 110 to 115 °C
- NC1=C([C@H]2CC[C@H](c3ccc(Cl)cc3)CC2)C(=O)c2ccccc2C1=O — higher, 210 to 215 °C
- CCCC(=O)c1cn(C)cc(-c2cccc(C(F)(F)F)c2)c1=O — lower, 93 to 94 °C
- CC=CCn1c(C)c(C)c2cnnc(CCc3ccc(F)cc3F)c21 — lower, 114 to 118 °C
- Cc1nc(-c2ccccc2)cc(-c2ccc(C#N)o2)c1C(=O)NCCN1CCOCC1 — higher, 141 to 143 °C
- CCCOC(=O)C1=C(C)NC(C(OC)OC)=C(C(=O)OC)C1c1ccccc1C#N (stereo unspecified) — higher, 139 to 141 °C
- COc1cc(C=O)ccc1OCc1nc(-c2ccccc2)sc1C — higher, 133 to 134 °C
- CC(C)Nn1c(CO)nc2c(N)nc3ccccc3c21 — higher, 228 to 229 °C
- CC(=O)c1ccc(OC(CCCCC(=O)O)c2ccccc2)cc1O (stereo unspecified) — lower, 91 to 93 °C
- Cc1ccc2c(n1)N(CCCN(C(C)C)C(C)C)c1ccccc1N(C)C2=O — lower, 118 to 119 °C
- CCCCOCCOc1ccc(-c2ccc(N3CCCCCC3)c(C=C(C)C(=O)OC)c2)cc1 — lower, 86 to 89 °C
- COCCOc1c(S(C)(=O)=O)ccc(C(=O)O)c1C — lower, 104 to 106 °C
- O=C(O)c1cnn(O)c1 — higher, 230 °C
- CNC(=O)N(C=O)c1cccc(C)c1 — lower, 112 to 113 °C
- CN(Cc1cccc(O)c1)c1cnc(-c2ccccc2)c(-c2ccccc2)n1 — higher, 156 to 157 °C
- CCCOc1ccc2c(c1)C(=O)C(C(=O)OC)=C2c1ccc2c(c1)OCO2 — higher, 125 to 126 °C
- N#Cc1cn(C(CO)CCc2ccccc2)cn1 (stereo unspecified) — lower, 111 to 115 °C
- CSc1nc2nc3cc(C(F)(F)F)ccc3cc2[nH]1 — higher, > 270 °C
- COc1cc(C2CCN(C[C@@H](C)O)CC2)ccc1Nc1ncc2ccc(-c3ccccc3N(C)S(C)(=O)=O)n2n1 — lower, 91 to 103 °C
- Cc1c(-c2ccc(Cl)cc2)nc2ccc(C(=O)NC(Cc3ccc(OCc4ccccc4)cc3)C(=O)O)cn12 (stereo unspecified) — higher, 244 to 245 °C
- Cc1nc2c3c(ccc2n1C)[C@H](O)C[C@H](c1ccccc1)O3 (relative stereo) — higher, 228 to 229 °C
- COC(CNc1nc(-c2ccccc2)c2cc(Cl)ccc2n1)OC — lower, 122 to 123 °C
- CCOC(=O)c1cn(Cc2ccccc2)nc1OCc1ccc(OCc2nc(-c3ccccc3)oc2C)cc1 — lower, 99 to 100 °C
- C=Cc1cc2cc(OC)ccc2n1C — lower, 87 to 89 °C
- CCOC(=O)C(=CNc1ccccc1CO)C(=O)C(C)C — lower, 72 to 84 °C
